{
  "source": "patent US8378098B2",
  "about": "“Imidazol[1,2-α]quinoxalines and derivatives for the treatment of cancers” (Universite de Montpellier I, priority 2007, dated 2013)",
  "key": {"RPMI7591 (melanoma)": {"test_system": "RPMI7591 (melanoma)", "experiment": "in vitro cytotoxicity on RPMI7591 melanoma line", "format": "cell-based", "conditions": "Homo sapiens; Table 2; unit inferred; read-out: IC50 RPMI7591", "from_the_text": "(§1) Several human carcinoma cell lines were used: • Lines A375, M4Be, RPMI7591 from human melanoma. • Line LS174T from colon carcinoma. • Line A 2780 from ovarian carcinoma. • The Raji line from B lymphoma. • Line MCF7 from breast carcinoma."}, "in vivo": {"experiment": "in vivo", "conditions": "rat, iv, 5 mg/kg", "method": "(§2) Methods of assaying compounds EAPB0203, EAPB0503 and EAPB0603 by high performance liquid chromatography and detection by mass spectrometry (LC/ESI-MS) were developed and validated in human and rat plasmas. Pre-treatment of the samples consists of a liquid solid extraction preceded by precipitation of plasma proteins in acid medium. The chromatographic column used is C8 Zorbax eclipse XDB and the mobile phase (gradient) a mixture of acetonitrile and formate buffer (pH 3) (flow rate, 0.8 ml/min). The […] from 92 to 113%. The extraction coefficients are higher than 72%. The quantification limit is 5 μg/l for all analytes. Stability tests of the compounds in the matrices were also carried out. These methods were used to determine the pharmacokinetic parameters of compounds EAPB0203, EAPB0503 and EAPB0603 in the rat. The lethal doses 50% of compounds EAPB0203 and EAPB0503 are respectively 14.8 and 7.6 mg/kg."}, "[1]": {"experiment": "determination of the lethal dose 50 (LD50) in the mouse", "format": "in vivo"}, "Raji (B lymphoma)": {"test_system": "Raji (B lymphoma)", "experiment": "in vitro cytotoxicity on Raji B lymphoma line", "format": "cell-based, human", "conditions": "Homo sapiens, Raji; Table 2; unit inferred", "from_the_text": "as §1"}, "[2]": {"experiment": "lethal doses 50% reported in the pharmacokinetic study", "format": "in vivo", "conditions": "species and route not stated in the sentence (rat study)", "method": "as §2"}, "[3]": {"test_system": "CEM and HuT-102 cells; HuT-102 and MT2 cells", "experiment": "protein expression by western blot (caspases, Bcl-2 family, cell cycle regulators)", "format": "cell-based, human", "from_the_text": "Proteinic cell extracts were obtained after various treatments and evaluation of the expression of certain proteins was studied by western blot.\nActivation of the mitochondrial route is controlled by members of the Bcl-2 family. […] In the cell lines infected or not infected by HTLV-I, the effect of EAPB0203 on regulators of the cell cycle is studied."}, "[4]": {"test_system": "HTLV-I-positive human T lines (HuT-102 and C8166, and MT2)", "experiment": "cell growth of HTLV-I-positive human T lines (CellTiter 96, trypan blue exclusion)", "format": "cell-based", "conditions": "1 to 10 μM, 24-96 h", "method": "FIG. 2: HTLV-I-positive and HTLV-I-negative malignant human cell lines are sensitive to EAPB0203, but activated or inactivated normal T lymphocytes are resistant. Effects of EAPB0203 on the growth of human T lines not infected by HTLV-I (CEM, Jurkatt, Molt-4 and HuT-78), HTLV-I-positive human T lines (HuT-102 and C8166, and MT2), and normal lymphocytes at rest or activated by PHA. The activated normal PBMC were supplemented with 2% PHA. EAPB0203 was added at the concentrations indicated in mole/l for 24-96 h. Cell growth is analyzed with the “CellTiter 96®” nonradioactive cell growth kit. The results are expressed as a percentage of the control (0.1% DMSO) and represent the mean of the results obtained in three independent experiments.\nThe in vitro activity of EAPB0203 on adult T-cell leukemia (ATL) transformed by retrovirus HTLV-I (HuT-102, MT2 . . . ) and malignant HTLV-I-negative T-cells (CEM, Jurkatt . . . ) was evaluated. Initially, the effect of EAPB0203 on cell growth of these lines was evaluated by two techniques, the nonradioactive “CellTiter 96®” cell growth kit and the trypan blue exclusion method."}, "LS174T (colon cancer)": {"test_system": "LS174T (colon cancer)", "experiment": "in vitro cytotoxicity on LS174T colon cancer line", "format": "cell-based", "conditions": "Homo sapiens, Table 2, unit inferred", "from_the_text": "as §1"}},
  "note": "Entries after “also recorded” stand apart in the source; their conditions may differ.",
  "data": [
    {"smiles": "CNc1nc2ccccc2n2c(CCc3ccccc3)cnc12", "note": "[EAPB0203, N-methyl-1-(2-phenylethyl)imidazo[1,2-a]quinoxalin-4-amine]", "values": [
      {"measurement": "IC50", "setting": "RPMI7591 (melanoma)", "result": "4.23 ± 0.48", "unit": "µM"},
      {"measurement": "Vd", "setting": "in vivo", "result": 10.6, "unit": "L/kg"},
      {"measurement": "area under the curve of plasma concentrations", "setting": "in vivo", "result": 870, "unit": "ng·h/mL"},
      {"measurement": "clearance", "setting": "in vivo", "result": 48.3, "unit": "mL/min/kg"},
      {"measurement": "half-life", "setting": "in vivo", "result": 2.6, "unit": "h"},
      {"measurement": "apparent toxicity after 48 h at the highest doses", "setting": "[1]", "result": "did not display any apparent toxicity"},
      {"measurement": "LD50 at 48 h", "setting": "[1]; in vivo, doses 30, 300 and 450 mg/kg, 48 h", "result": "> 450", "unit": "mg/kg"},
      {"measurement": "IC50", "setting": "Raji (B lymphoma)", "result": "6.23 ± 0.06", "unit": "µM"},
      {"measurement": "lethal doses 50%", "setting": "[2]", "result": 14.8, "unit": "mg/kg"},
      {"measurement": "caspases (cleavage of PARP, procaspase-3, -8, -9)", "setting": "[3]; CEM and HuT-102 cells, western blot", "result": "activation of caspases"},
      {"measurement": "expression of proteins p21 and p53", "setting": "[3]; HuT-102 and MT2 cells (HTLV-I-positive)", "result": "significant increase"},
      {"measurement": "apoptosis under co-treatment by caspase inhibitor zVAD", "setting": "[3]; co-treatment with zVAD", "result": "partial protection"},
      {"measurement": "expression of IAP-1 proteins and bcl-xL", "setting": "[3]; western blot", "result": "significant reduction"},
      {"measurement": "growth of ATL cells (HTLV-I-positive)", "setting": "[4]", "result": "sensitive; also recorded: progressive, dose-dependent inhibition"},
      {"measurement": "IC50", "setting": "LS174T (colon cancer)", "result": "4.12 ± 0.67", "unit": "µM"}
    ]}
  ]
}
